The numbers were not newly measured in patent US9370574B2, “Composite absorbable/biodegradable rings for controlled drug delivery” (Poly-Med, Inc., priority 2003, dated 2016), which cites them from elsewhere.

Data set [1] relates to cervical intraepithelial neoplasia (CIN). The settings on record: collagen sponge in cervical cap.
In data set [2] the test system is Human Papillomavirus (HPV)-associated lesions of the vulva and vagina. The conditions noted are these: biweekly doses of 5% cream for six months following ablative treatment.
For data set [3], the system named is post-irradiation vaginal carcinoma in-situ. The settings on record: 20% 5-FU over monthly 5-day courses.
Data set [4] has as its system bacterial vaginosis.
Data set [5] has as its system bacterial vaginosis. The settings on record: 5 gm gel (0.75%) twice-daily for 5 days.

Consider `CC1=C(/C=C/C(C)=C/C=C/C(C)=C/C(=O)O)C(C)(C)CCC1` [RA, all-trans-retinoic acid], for which the “complete histologic regression of CIN II” value in data set [1] (locally applied daily for 4 days) was 43%. Moreover, the “treatment effect in severe dysplasia (CIN III)” value in data set [1] (locally applied) is recorded as “No treatment effect”.
Take `O=c1[nH]cc(F)c(=O)[nH]1` [Type 5-FU, 5-flurouracil]: the recurrences in data set [2] was 13%. In data set [3], the initial complete response entry is “seven of the eight”.
With `Cc1ncc([N+](=O)[O-])n1CCO` [metronidazole], the “failure rate after one month, high dose” value in data set [4] (high dose sponge (one gram once-daily for three days)) was 12%. The cure rate in data set [4] (intravaginal sponges, 250 mg twice-daily two days or one gram once-daily three days, after one week) is reported as 85%. Besides, the “failure rate after one month, low dose” value in data set [4] (low dose sponge (250 mg twice-daily for two days)) was 42%. The clinical cure rate in data set [5] (after 9 to 21 days) is reported as 87%. In data set [5] (after one month), the recurrence rate is 15%.
